Test results: ChEMBL document CHEMBL1201862, “PubChem BioAssay data set” (2004)
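Results reflect a 48-hour exposure of cells in 96-well plates to compound at five concentrations. GI50: concentration for 50% inhibition of growth.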 Active and inactive are the calls of the source. Cut-off read from the data, not from the text of the source: active = GI50 up to about 1.1 µM and inactive = higher.

What was measured:
Assay in all cases: growth of human tumour cells (NCI), 48 h
UO-31 = system: UO-31
SNB-75 = system: SNB-75
COLO 205 = system: COLO 205
MOLT-4 = system: MOLT-4
HT-29 = system: HT-29
UACC-62 = system: UACC-62
HCT-116 = system: HCT-116
U-251 = system: U-251
IGROV-1 = system: IGROV-1
SK-MEL-28 = system: SK-MEL-28
SF-295 = system: SF-295
A549 = system: A549
SK-OV-3 = system: SK-OV-3
HCT-15 = system: HCT-15
EKVX = system: EKVX
HL-60 = system: HL-60
ACHN = system: ACHN
M14 = system: M14
PC-3 = system: PC-3
MDA-MB-231 = system: MDA-MB-231

| SMILES | GI50 (UO-31) | GI50 (SNB-75) | GI50 (COLO 205) | GI50 (MOLT-4) | GI50 (HT-29) | GI50 (UACC-62) | GI50 (HCT-116) | GI50 (U-251) | GI50 (IGROV-1) | GI50 (SK-MEL-28) | GI50 (SF-295) | GI50 (A549) | GI50 (SK-OV-3) | GI50 (HCT-15) [µM] | GI50 (EKVX) | GI50 (HL-60) | GI50 (ACHN) | GI50 (M14) | GI50 (PC-3) | GI50 (MDA-MB-231) |
| --- | --- | --- | --- | --- | --- | --- | --- | --- | --- | --- | --- | --- | --- | --- | --- | --- | --- | --- | --- | --- |
| COc1cc(/C=C/C(=O)O)ccc1C(=O)O/C=C/c1ccccc1 | > 66.7 µM (inactive) | 67 µM (inactive) | > 100 µM (inactive) | 65.9 µM (inactive) | > 100 µM (inactive) | > 100 µM (inactive) | > 72.8 µM (inactive) | > 100 µM (inactive) | > 100 µM (inactive) | > 100 µM (inactive) | > 100 µM (inactive) | > 100 µM (inactive) | > 100 µM (inactive) | 99.8 | > 100 µM (inactive) | 45.3 µM (inactive) |  |  |  |  |
| CCOC(=O)N1CCN(C(=O)Nc2cccc3ccccc23)CC1 | > 10 µM (inactive) | > 10 µM (inactive) | > 10 µM (inactive) | > 10 µM (inactive) | > 10 µM (inactive) | > 10 µM (inactive) | > 10 µM (inactive) | > 10 µM (inactive) | > 10 µM (inactive) | > 10 µM (inactive) | > 10 µM (inactive) | > 10 µM (inactive) | > 10 µM (inactive) | > 10 | > 10 µM (inactive) | > 10 µM (inactive) | > 10 µM (inactive) | > 10 µM (inactive) | > 10 µM (inactive) | > 10 µM (inactive) |
| CC(C)C(=O)CC(c1ccc(Br)cc1)N1N=C(C(C)C)CC1c1ccc(Br)cc1 (stereo not drawn) | 68.7 µM (inactive) |  | > 100 µM (inactive) | 31.3 µM (inactive) | 18.6 µM (inactive) |  | 29.4 µM (inactive) | 48.8 µM (inactive) |  | > 100 µM (inactive) |  | 96.8 µM (inactive) | 34.5 µM (inactive) | 62.4 | 44.9 µM (inactive) |  | > 100 µM (inactive) | 66.1 µM (inactive) |  |  |
| C=CCN1C(=O)/C(=C/c2cccs2)N=C1SC1OC(COC(=O)c2ccccc2)C(OC(=O)c2ccccc2)C1OC(=O)c1ccccc1 (stereo not drawn) |  | > 100 µM (inactive) | > 100 µM (inactive) | > 100 µM (inactive) |  | > 100 µM (inactive) |  | > 100 µM (inactive) | > 100 µM (inactive) | > 100 µM (inactive) | > 100 µM (inactive) |  | > 100 µM (inactive) | > 100 | > 100 µM (inactive) | > 100 µM (inactive) | > 100 µM (inactive) |  | > 100 µM (inactive) | > 100 µM (inactive) |
| COc1ccc2c(c1)CCCc1cn[nH]c1-2 | > 100 µM (inactive) | > 100 µM (inactive) | > 100 µM (inactive) | > 100 µM (inactive) | > 100 µM (inactive) | > 100 µM (inactive) | > 100 µM (inactive) | > 100 µM (inactive) |  | > 100 µM (inactive) | > 100 µM (inactive) | > 100 µM (inactive) | > 100 µM (inactive) | > 100 | > 74.6 µM (inactive) | > 100 µM (inactive) |  |  |  |  |
| N#Cc1c(NC(=S)Nc2ccc(Cl)cc2)sc2c1CCCC2 | > 100 µM (inactive) | > 100 µM (inactive) | > 100 µM (inactive) | 16.6 µM (inactive) | > 100 µM (inactive) | > 100 µM (inactive) | > 100 µM (inactive) | > 100 µM (inactive) | > 100 µM (inactive) | > 100 µM (inactive) | > 100 µM (inactive) |  |  | > 100 | 3.83 µM (inactive) | 34.8 µM (inactive) | > 100 µM (inactive) |  | > 100 µM (inactive) | 3.54 µM (inactive) |
| CC(=O)OC/C=C\Cn1nc(Br)c(=O)[nH]c1=O | 16.4 µM (inactive) | 15.1 µM (inactive) | 13.5 µM (inactive) |  |  |  |  | 10.5 µM (inactive) | 15 µM (inactive) | 16.4 µM (inactive) |  | 16.7 µM (inactive) |  | 13.1 | 17.4 µM (inactive) | 4.69 µM (inactive) | 7.87 µM (inactive) | 14.9 µM (inactive) | 13.2 µM (inactive) | 18 µM (inactive) |
| O=C1C=C(N2CC2)C(=O)C=C1N1CC1 | 0.104 µM (active) | 0.385 µM (active) | 0.0984 µM (active) | 0.0344 µM (active) | 0.204 µM (active) | 0.178 µM (active) |  | 0.229 µM (active) | 0.753 µM (active) | 0.29 µM (active) | 0.155 µM (active) |  | 0.522 µM (active) | 0.102 |  | 0.0265 µM (active) | 0.0423 µM (active) | 0.091 µM (active) | 1.11 µM (active) | 2.3 µM (inactive) |
| CCOC(=O)C1(C(=O)OCC)CSC1 | > 100 µM (inactive) | > 100 µM (inactive) | > 100 µM (inactive) | > 100 µM (inactive) | > 100 µM (inactive) |  | > 100 µM (inactive) | > 100 µM (inactive) |  | > 100 µM (inactive) | > 100 µM (inactive) | > 100 µM (inactive) | > 100 µM (inactive) | > 100 |  |  | > 100 µM (inactive) | > 100 µM (inactive) | > 100 µM (inactive) | > 100 µM (inactive) |
| OCC(CO)CC1COc2ccccc2O1 (stereo not drawn) | > 10 µM (inactive) | > 10 µM (inactive) | > 10 µM (inactive) | > 10 µM (inactive) | > 10 µM (inactive) | > 10 µM (inactive) | > 10 µM (inactive) | > 10 µM (inactive) | > 10 µM (inactive) | > 10 µM (inactive) | > 10 µM (inactive) | > 10 µM (inactive) | > 10 µM (inactive) | > 10 | > 10 µM (inactive) | > 10 µM (inactive) | > 10 µM (inactive) | > 10 µM (inactive) | > 10 µM (inactive) | > 10 µM (inactive) |
